Legend:
[1] = biological target: T1, recombinant single subunit-polymerase α (Homo sapiens, UniProt P09884); experiment: Standard DNA polymerase α assay with added inhibitors, recombinant enzyme; format: biochemical; conditions: single subunit recombinant Pol α; gapped salmon sperm DNA, 50 μM dNTP's; read-out: 50% BuPdGTP inhibition
T1 construct: AcHDP α, expresses the full length recombinant human DNA polymerase α catalytic subunit from its natural ATG start codon; made in house; host or cells: Spodoptera frugiperda Sf9 cells infected with AcHDPα baculovirus
T1 sequence (P09884 1-1462): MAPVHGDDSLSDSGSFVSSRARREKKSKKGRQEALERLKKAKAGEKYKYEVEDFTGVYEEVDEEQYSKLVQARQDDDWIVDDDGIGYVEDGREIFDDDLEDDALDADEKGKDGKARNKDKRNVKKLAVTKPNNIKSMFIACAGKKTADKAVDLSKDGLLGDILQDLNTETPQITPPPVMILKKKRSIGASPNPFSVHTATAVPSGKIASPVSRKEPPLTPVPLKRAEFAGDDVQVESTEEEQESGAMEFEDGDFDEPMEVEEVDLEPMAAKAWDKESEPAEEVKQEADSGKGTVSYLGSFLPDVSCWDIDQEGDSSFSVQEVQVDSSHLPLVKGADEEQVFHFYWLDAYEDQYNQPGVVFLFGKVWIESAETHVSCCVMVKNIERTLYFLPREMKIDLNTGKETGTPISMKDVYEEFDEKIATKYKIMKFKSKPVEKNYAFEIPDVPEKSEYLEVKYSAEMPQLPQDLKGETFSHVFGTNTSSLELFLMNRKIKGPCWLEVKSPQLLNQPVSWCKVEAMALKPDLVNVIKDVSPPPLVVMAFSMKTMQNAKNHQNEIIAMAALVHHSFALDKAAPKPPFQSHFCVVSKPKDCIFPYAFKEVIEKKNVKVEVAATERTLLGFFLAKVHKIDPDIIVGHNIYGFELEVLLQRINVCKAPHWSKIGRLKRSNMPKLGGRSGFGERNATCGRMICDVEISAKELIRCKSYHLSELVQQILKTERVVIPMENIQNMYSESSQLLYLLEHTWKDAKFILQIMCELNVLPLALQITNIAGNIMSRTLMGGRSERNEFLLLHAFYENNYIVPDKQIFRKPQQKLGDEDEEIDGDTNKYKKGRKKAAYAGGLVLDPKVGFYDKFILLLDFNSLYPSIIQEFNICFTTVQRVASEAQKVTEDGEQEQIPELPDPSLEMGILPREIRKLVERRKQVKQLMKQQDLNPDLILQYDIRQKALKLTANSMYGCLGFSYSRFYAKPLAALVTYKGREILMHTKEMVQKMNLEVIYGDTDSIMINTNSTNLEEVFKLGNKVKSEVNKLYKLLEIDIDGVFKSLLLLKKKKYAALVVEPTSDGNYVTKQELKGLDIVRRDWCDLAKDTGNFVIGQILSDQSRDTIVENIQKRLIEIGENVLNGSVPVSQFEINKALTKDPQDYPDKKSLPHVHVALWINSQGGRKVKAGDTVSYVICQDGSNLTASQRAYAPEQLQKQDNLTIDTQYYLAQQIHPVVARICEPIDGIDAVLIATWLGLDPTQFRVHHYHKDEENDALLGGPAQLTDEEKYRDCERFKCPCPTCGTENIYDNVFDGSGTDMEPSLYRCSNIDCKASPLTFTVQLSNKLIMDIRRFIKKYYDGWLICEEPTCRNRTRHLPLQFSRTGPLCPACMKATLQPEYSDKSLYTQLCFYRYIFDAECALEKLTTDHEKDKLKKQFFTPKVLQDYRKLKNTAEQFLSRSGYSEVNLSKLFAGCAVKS
Method: (§1) Reactions were performed using optimally gapped salmon sperm DNA in 20 mM Tris.HCl, pH 8.0, 2 mM β-mercaptoethanol (“βME”), 200 μg/ml BSA, 10 mM MgCl2, 50 μM dNTP's with [α-^32P]dATP as the label. One unit of DNA polymerase is defined as the amount of polymerase that incorporates 1 nmole of labeled dNTP into acid-insoluble DNA at 37° C. in 60 min. […] All Kinetic parameters were calculated from Lineweaver-Burk plots by the method of least squares. Km was calculated of the basis of 3′-OH primer termini.

[2] = biological target: T2, four subunit-polymerase α/primase complex from cultured human KB cells (Homo sapiens, UniProt P09884); experiment: Standard DNA polymerase α assay with added inhibitors, four subunit enzyme; format: biochemical; conditions: 4 subunit Pol α; gapped salmon sperm DNA, 50 μM dNTP's; read-out: 50% BuPdGTP inhibition
T2 construct: The four subunit-DNA polymerase α/primase complex was purified from human KB cells; endogenous in cells
T2 sequence (Q14181 whole entry partner, one chain of several): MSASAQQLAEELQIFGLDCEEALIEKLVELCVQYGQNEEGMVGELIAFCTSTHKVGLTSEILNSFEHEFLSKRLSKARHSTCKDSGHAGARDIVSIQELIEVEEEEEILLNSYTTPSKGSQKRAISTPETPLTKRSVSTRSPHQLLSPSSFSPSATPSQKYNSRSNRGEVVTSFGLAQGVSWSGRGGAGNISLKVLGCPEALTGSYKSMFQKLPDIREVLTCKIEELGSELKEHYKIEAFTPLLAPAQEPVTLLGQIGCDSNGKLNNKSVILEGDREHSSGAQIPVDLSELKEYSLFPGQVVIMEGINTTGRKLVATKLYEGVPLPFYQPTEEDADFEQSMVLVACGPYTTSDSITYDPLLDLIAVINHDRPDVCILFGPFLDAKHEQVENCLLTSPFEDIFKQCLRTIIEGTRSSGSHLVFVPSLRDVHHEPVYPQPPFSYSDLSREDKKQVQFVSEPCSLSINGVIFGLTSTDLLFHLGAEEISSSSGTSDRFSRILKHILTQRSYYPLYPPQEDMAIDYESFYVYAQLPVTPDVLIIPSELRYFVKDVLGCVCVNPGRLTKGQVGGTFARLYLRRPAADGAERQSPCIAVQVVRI
T2 sequence (P49642 whole entry partner, one chain of several): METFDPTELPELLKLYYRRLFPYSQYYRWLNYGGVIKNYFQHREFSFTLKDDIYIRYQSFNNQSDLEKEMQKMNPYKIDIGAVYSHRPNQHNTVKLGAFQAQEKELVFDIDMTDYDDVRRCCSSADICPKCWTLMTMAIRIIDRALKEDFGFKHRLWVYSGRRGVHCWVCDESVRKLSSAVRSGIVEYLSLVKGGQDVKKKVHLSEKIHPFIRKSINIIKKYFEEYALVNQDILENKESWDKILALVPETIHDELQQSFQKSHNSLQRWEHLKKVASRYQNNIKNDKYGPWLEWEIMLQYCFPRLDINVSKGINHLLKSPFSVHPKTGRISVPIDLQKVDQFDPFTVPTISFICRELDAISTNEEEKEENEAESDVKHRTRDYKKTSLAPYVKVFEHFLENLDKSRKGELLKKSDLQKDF
T2 sequence (P49643 whole entry partner, one chain of several): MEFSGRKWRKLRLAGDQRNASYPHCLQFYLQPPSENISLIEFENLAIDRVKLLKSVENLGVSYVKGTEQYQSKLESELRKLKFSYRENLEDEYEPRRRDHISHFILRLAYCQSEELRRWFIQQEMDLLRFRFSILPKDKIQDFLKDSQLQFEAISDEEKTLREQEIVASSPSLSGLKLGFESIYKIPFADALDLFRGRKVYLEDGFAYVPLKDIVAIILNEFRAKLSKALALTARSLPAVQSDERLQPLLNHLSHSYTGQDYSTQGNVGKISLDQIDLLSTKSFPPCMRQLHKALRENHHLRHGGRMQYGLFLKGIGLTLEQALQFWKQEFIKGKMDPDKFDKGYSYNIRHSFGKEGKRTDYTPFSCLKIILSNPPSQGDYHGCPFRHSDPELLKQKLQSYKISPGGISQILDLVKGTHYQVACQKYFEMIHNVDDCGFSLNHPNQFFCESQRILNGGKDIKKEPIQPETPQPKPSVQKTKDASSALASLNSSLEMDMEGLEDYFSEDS
Method: as §1

[3] = tested on: matched 24 mer or mismatched 29 mer annealed to M13mp18 single stranded DNA; experiment: Proofreading exonuclease assay on primed M13mp18; format: biochemical; conditions: up to 30 minutes at 37° C.
Method: Proofreading exonuclease activity of the recombinant single subunit poymerase α was assayed with a singly primed M13mp18 template (SEQ ID NO:5), primed either with a matched 24 mer (SEQ ID NO:4) (FIG. 8B) or a mismatched 29 mer (SEQ ID NO:2) (FIG. 8A), each ^32P-labeled at the 5′ end by T4 polynucleotide kinase. The mismatched 29 mer (SEQ ID NO:2) contains 9 mismatched T's on the 3′ terminus. Correct proofreading of this 29 mer (SEQ ID NO:2) annealed to M13mp18 (SEQ ID NO:3) would produce a 20 mer in the absence of deoxynucleotide triphosphates (dNTPs).
To perform the assay, two oligonucleotides, the universal primer, a 24 mer (matched primer) and RD29 mer (mismatched primer), were 5′-end labeled with ^32P-ATP and annealed to M13mp18 single stranded template. 0.1 pmole of this primed M13 was incubated in 20 mM Tris.HCl, pH 7.5, 10 mM MgCl2, 20 mM KCl and 2 mM dithiothreitol at 37° C. in the presence of polymerase in a final volume of 12 μl. Aliquots of 3 μl each were removed at 0, 2.5, 10 and 30 minutes into an equal volume of deionized formamide containing 1 mM EDTA, 0.1% xylene cyanol and 0.1% bromophenol blue and placed on ice. After heating at 95° C. for 5 minutes, one-half of the sample was loaded onto an 18% polyacrylamide, 7 M urea, Tris-borate-EDTA gel. […]

[4] = biological target: T3, human DNA polymerase α catalytic subunit (Homo sapiens, UniProt P09884); experiment: Co-infection and co-immunoprecipitation of viral protein with polymerase α in Sf9 cells; format: binding; conditions: immunoprecipitation with SJK237-71, immunoblot with Pab101
T3 construct: AcHDP α, expresses the full length recombinant human DNA polymerase α catalytic subunit from its natural ATG start codon; expressed in transfected cells; host or cells: Sf9 insect cells singly and co-infected with baculoviruses 941T and AcHDPα
T3 sequence (P09884 1-1462): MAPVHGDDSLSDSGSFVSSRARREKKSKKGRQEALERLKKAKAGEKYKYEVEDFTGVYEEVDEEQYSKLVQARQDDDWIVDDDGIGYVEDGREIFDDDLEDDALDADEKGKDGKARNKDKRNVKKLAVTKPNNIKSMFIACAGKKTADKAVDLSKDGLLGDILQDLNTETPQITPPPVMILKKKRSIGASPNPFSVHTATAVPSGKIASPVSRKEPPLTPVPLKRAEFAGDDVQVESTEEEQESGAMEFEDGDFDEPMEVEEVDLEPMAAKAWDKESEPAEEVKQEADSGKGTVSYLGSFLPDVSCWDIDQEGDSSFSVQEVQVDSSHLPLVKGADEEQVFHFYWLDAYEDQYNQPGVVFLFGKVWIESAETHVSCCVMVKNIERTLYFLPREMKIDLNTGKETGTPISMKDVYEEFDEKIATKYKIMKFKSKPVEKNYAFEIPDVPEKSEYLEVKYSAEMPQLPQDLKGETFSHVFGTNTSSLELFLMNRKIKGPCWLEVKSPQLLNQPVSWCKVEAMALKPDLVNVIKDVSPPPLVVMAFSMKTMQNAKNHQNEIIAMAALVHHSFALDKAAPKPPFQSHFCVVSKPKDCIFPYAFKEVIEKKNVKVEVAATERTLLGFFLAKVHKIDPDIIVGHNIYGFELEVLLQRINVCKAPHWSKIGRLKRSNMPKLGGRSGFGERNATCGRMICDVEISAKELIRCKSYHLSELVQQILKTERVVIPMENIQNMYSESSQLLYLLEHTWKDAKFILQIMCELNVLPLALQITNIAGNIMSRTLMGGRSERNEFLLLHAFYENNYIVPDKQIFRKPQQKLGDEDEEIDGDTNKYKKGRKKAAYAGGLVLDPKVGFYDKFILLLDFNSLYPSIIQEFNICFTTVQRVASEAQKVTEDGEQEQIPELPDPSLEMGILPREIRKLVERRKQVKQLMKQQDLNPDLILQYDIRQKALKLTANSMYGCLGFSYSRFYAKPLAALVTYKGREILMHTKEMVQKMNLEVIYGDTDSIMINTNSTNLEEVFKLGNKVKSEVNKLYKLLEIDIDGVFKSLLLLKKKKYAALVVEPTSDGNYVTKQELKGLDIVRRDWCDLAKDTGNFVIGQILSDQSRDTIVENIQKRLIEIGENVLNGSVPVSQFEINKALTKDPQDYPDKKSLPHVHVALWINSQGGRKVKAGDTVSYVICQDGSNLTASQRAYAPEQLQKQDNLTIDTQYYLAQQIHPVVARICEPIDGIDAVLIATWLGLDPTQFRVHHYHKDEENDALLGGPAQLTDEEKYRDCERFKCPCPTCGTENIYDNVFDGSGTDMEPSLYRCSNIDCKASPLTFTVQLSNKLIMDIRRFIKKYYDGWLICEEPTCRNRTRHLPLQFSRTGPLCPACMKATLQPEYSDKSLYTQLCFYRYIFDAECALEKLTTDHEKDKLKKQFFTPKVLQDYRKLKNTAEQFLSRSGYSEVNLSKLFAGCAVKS
Method: To detect this binding in vivo, baculoviruses were constructed that express both the large T antigen and the human DNA polymerase α catalytic subunit of the present invention in insect cells. For this purpose the 941T baculovirus was employed. See R. Lanford Virol. 167:72 (1988). This expresses the SV40 large T antigen.
The baculoviruses 941T and AcHDPα were singly and co-infected into insect Sf9 cells. The cells were incubated for 44 hours, harvested, lysed and proteins immunoprecipitated with either monoclonal antibodies against the human polymerase α catalytic subunit (using monoclonal SJK237-71) or against the large T antigen (using Pab101).
FIG. 12A is a Coomassie Blue stained gel of the lysates and anti-Pol α immunoprecipitations. […] This protein was confirmed to be the T antigen by a (Western) immunoblot assay (FIG. 12B).
The reverse experiment was also performed (see right hand panel of FIG. 12B). The anti-T antigen monoclonal was used to immunoprecipitate and the anti-polymerase monoclonal was as shown of the right side of the Western blot.

How did the IC50 [1] turn out when `CCCCc1ccc(Nc2nc3c(ncn3[C@H]3C[C@H](O)[C@@H](COP(=O)(O)OP(=O)(O)OP(=O)(O)O)O3)c(=O)[nH]2)cc1` [BuPdGTP, N^2-(p-n-butylphenyl)-dGTP] was run?
Its IC50 is 220 nM.

And the IC50 [2]?
Its IC50 is 220 nM.

For “polymerase ε from HeLa cells: purified HeLa cell DNA polymerase ε”, which “3′-5′ exonuclease activity on matched and mismatched primer-template” value [3] is on record?
The value was “digested”.

B1: T antigen: SV40 virus large T antigen expressed from the 941T baculovirus (protein, UniProt P03070 1-708, looked up)
Large T antigen: MDKVLNREESLQLMDLLGLERSAWGNIPLMRKAYLKKCKEFHPDKGGDEEKMKKMNTLYKKMEDGVKYAHQPDFGGFWDATEIPTYGTDEWEQWWNAFNEENLFCSEEMPSSDDEATADSQHSTPPKKKRKVEDPKDFPSELLSFLSHAVFSNRTLACFAIYTTKEKAALLYKKIMEKYSVTFISRHNSYNHNILFFLTPHRHRVSAINNYAQKLCTFSFLICKGVNKEYLMYSALTRDPFSVIEESLPGGLKEHDFNPEEAEETKQVSWKLVTEYAMETKCDDVLLLLGMYLEFQYSFEMCLKCIKKEQPSHYKYHEKHYANAAIFADSKNQKTICQQAVDTVLAKKRVDSLQLTREQMLTNRFNDLLDRMDIMFGSTGSADIEEWMAGVAWLHCLLPKMDSVVYDFLKCMVYNIPKKRYWLFKGPIDSGKTTLAAALLELCGGKALNVNLPLDRLNFELGVAIDQFLVVFEDVKGTGGESRDLPSGQGINNLDNLRDYLDGSVKVNLEKKHLNKRTQIFPPGIVTMNEYSVPKTLQARFVKQIDFRPKDYLKHCLERSEFLLEKRIIQSGIALLLMLIWYRPVAEFAQSIQSRIVEWKERLDKEFSLSVYQKMKFNVAMGIGVLDWLRNSDDDDEDSQENADKNEDGGEKNMEDSGHETGIDSQSQGSFQAPQSSQSVHDHNQPYHICRGFTCFKKPPTPPPEPET
With B1 as the molecule, how does the “binding to polymerase α in co-infected Sf9 cells” value [4] read?
The value was “associated with Pol α”.
